Laboratory results published in the CheMixHub ionic liquid set.
± gives the uncertainty stated by the source.

Assay: xn = mol fraction of the nth substance listed

CCCC[n+]1ccn(C)c1.COP(=O)([O-])OC + CC(=O)[O-].CCCC[NH2+]CCO
101 kPa, x2 = 0
Conditions | viscosity [mPa·s]
278.15 K | 3503 ± 200
283.15 K | 2142 ± 110
288.15 K | 1361 ± 62
293.15 K | 895 ± 36
298.15 K | 609 ± 21
303.15 K | 426 ± 13
308.15 K | 305.8 ± 8.1
313.15 K | 224.9 ± 5.1
318.15 K | 168.9 ± 3.3
323.15 K | 129.4 ± 2.2
328.15 K | 100.9 ± 1.5
333.15 K | 79.9 ± 1.1
338.15 K | 64.25 ± 0.82
343.15 K | 52.35 ± 0.65
348.15 K | 43.18 ± 0.55
353.15 K | 36.02 ± 0.46
358.15 K | 30.38 ± 0.38
363.15 K | 25.86 ± 0.33
368.15 K | 22.22 ± 0.28
373.15 K | 19.25 ± 0.24

CCCCCCCCn1cc[n+](C)c1.F[B-](F)(F)F + CC1COC(=O)O1
Conditions | viscosity [mPa·s]
303.15 K, 99.7 kPa, x2 = 0.4086 | 38.9 ± 5.5

CCCCCCCCn1cc[n+](C)c1.F[B-](F)(F)F + CCO
Conditions | viscosity [mPa·s]
283.15 K, 101 kPa, x2 = 0.081 | 720 ± 130
